Values quoted from earlier work in paper PMC3241508 (Bioconjugate chemistry, 2011).

- oral absorption into the blood stream (later study): good oral absorption
- oral absorption (oral): poorly absorbed orally
Substance: dextran sulfate
